According to US20140072573A1, “METHOD OF TREATING RHEUMATOID ARTHRITIS” (Institut National de la Sante et de la Recherche Medicale …, priority 2012, published 2014):
“Also recorded” adds a separate entry of the source.

What was measured:
Assay type in all cases: cell-based, human
VE-cadherin [1] = experiment: VE-cadherin cytoplasmic fragment (VE-cyto) and 125 kDa full length protein in HUVEC extracts, western blot; conditions: for effect on TNFα-induced VE-cyto generation: L685 present
Protocol: (§1) Cell culture, extraction and immunoprecipitation: Endothelial cells were obtained from human umbilical vein (HUVECs) and grown to reach confluence in M199 medium supplemented with 10% fetal bovine serum (FCS), 2% Low Serum Growth Supplement LSGS (Cascade Biologics, USA) as previously described (Garnier-Raveaud et al., 2001). The 80% confluent HUVECs (passages 2 or 4) were used for most experiments. Confluent cells in 60 mm dishes were serum-starved in 1% fetal calf serum in M 199 for 24 h prior to testing. Before TNFα stimulation the cells were serum-starved for 2 hours, and then pre-treated for 15 min with sodium pervanadate (10 μM) and/or inhibitors as mentioned in text and figure legends. HUVECs were then stimulated with different concentrations of TNFα for various lengths of time as indicated. Otherwise, in most parts of this study, precisely in inhibition experiments TNFα was used at high concentration (i.e 100 ng/mL). As the inhibitors were diluted in dimethyl-sulfoxide (DMSO), control cells were systematically treated with DMSO 0.1% in any inhibition experiment.
Cells stimulation was stopped by medium collection and addition of 500 μl of ice-cold buffer A. The cells were harvested, homogenized and sonicated for 20 seconds. Cell lysates were collected after centrifugation for 15 min at […] at 14,000 g. The protein concentration was measured using the micro-bicinchoninic acid protein assay and cell lysates were stored at −80° C. before use.
(§2) Western blotting: Proteins were resolved by SDS-PAGE and transferred to nitrocellulose.

HUVECs = experiment: Cell viability of treated HUVECs
VE-cadherin [2] = experiment: VE-cadherin extracellular fragment (VE-90) release in HUVEC conditioned media, western blot; conditions: for effect on TNFα-induced VE-90 release: 15 min pre-treatment, TNFα 100 ng/ml 45 min
Protocol: as §1
For conditioned medium analysis, the medium was collected and centrifuged for 15 minutes at 14,000 g at 4° C. The resulting supernatant was collected and proteins were concentrated by trichloro acetic acid precipitation (10%) overnight. After centrifugation at 14,000 g for 30 min, the pellet was re-suspended in Tris 50 mM (pH 11) and analyzed by SDS-PAGE and Western blotting.
as §2

VE-cadherin [3] = experiment: VE-cadherin tyrosine phosphorylation in HUVEC lysates, immunoprecipitation and phosphotyrosine western blot; conditions: 50 μM, TNFα 100 ng/ml
Protocol: as §1
Cells stimulation was stopped by medium collection and addition of 500 μl of ice-cold buffer A. The cells were harvested, homogenized and sonicated for 20 seconds. […] The protein concentration was measured using the micro-bicinchoninic acid protein assay and cell lysates were stored at −80° C. before use. […]

CNC(=O)[C@H](Cc1c[nH]c2ccccc12)NC(=O)[C@@H](CC(=O)NO)CC(C)C [GM6001]
effect on TNFα-induced VE-cyto generation (VE-cadherin [1]; 10 μM pre-treatment): almost completely abrogated
cell viability (HUVECs; 10 μM): without affecting cell viability
effect on TNFα-induced VE-90 release (VE-cadherin [2]; 10 μM): drastically decreased

CC(C)(C)n1nc(-c2ccc(Cl)cc2)c2c(N)ncnc21 [PP2]
effect on TNFα-induced VE-cyto generation (VE-cadherin [1]; 10 μM pre-treatment): strongly impaired
cell viability (HUVECs; 10 μM): without affecting cell viability
effect on TNFα-induced VE-90 release (VE-cadherin [2]; 10 μM): strongly decreased

O=c1c(-c2ccc(O)cc2)coc2cc(O)cc(O)c12 [genistein]
effect on TNFα-induced VE-cyto generation (VE-cadherin [1]; 50 μM pre-treatment): strongly impaired
effect on VE-cyto generation with or without pervanadate pre-treatment (VE-cadherin [1]; both conditions (pervanadate pre-treated or not), TNFα): still decreased
effect on TNFα-induced VE-cadherin tyrosine phosphorylation (VE-cadherin [3]): inhibited
cell viability (HUVECs; 50 μM): without affecting cell viability
effect on TNFα-induced VE-90 release (VE-cadherin [2]; 50 μM): strongly decreased

TNFα
appearance of VE-cyto upon TNFα challenge (VE-cadherin [1]; HUVEC extracts, γ-secretase inhibitor L685 present, TNFα 100 ng/ml): clearly detected
VE-90 release versus TNFα concentration (VE-cadherin [2]; HUVECs, TNFα 0 up to 10 ng/ml, 45 min): increased in a dose-dependent manner; also recorded: dose-dependent release
time of TNFα stimulation after which VE-90 was detected (VE-cadherin [2]; HUVECs, TNFα 100 ng/ml): 10 min
VE-90 release in conditioned media over time (VE-cadherin [2]; HUVECs, TNFα 100 ng/ml, 5 to 60 min): time-dependent release; also recorded: increased in a time-dependent manner up to 60 min
low TNFα concentration at which VE-90 release was early detected (VE-cadherin [2]; HUVECs, dose-response 0 up to 10 ng/ml, 45 min): 0.5 ng/mL

sodium pervanadate
effect on VE-cyto generation upon cytokine treatment (VE-cadherin [1]; pervanadate pre-treated versus non pre-treated HUVECs): tremendous increase
